# Source: PubChem BioAssay (NCI)
#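 Interpolation was linear, between the two tested concentrations surrounding the appropriate level; five concentrations were tested over 48 hours in 96-well plates. GI50 = concentration required for 50% inhibition of growth. At the TGI there is no net growth.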
# Assays:
# Assay in all cases: growth of human tumour cells (NCI), 48 h
# [1] = test system: SR leukemia
# [2] = test system: SK-MEL-2 melanoma
# [3] = test system: SK-MEL-28 melanoma
# [4] = test system: OVCAR-8 ovarian
# [5] = test system: DU-145 prostate
# [6] = test system: MDA-MB-231 breast
# [7] = test system: IGROV1 ovarian
# [8] = test system: LOX IMVI melanoma
# [9] = test system: 786-0 renal
# [10] = test system: NCI-H226 lung
Structure (SMILES),GI50 [1] [nM],TGI [1] [µM],GI50 [2] [µM],TGI [2] [µM],GI50 [3] [nM],TGI [3] [µM],GI50 [4] [µM],TGI [4] [µM],GI50 [5] [nM],TGI [5] [µM],GI50 [6] [nM],TGI [6] [µM],GI50 [7] [µM],TGI [7] [µM],GI50 [8] [nM],TGI [8] [µM],GI50 [9] [nM],TGI [9] [µM],GI50 [10] [nM],TGI [10] [µM]
N#C/C(=C\c1ccc(Br)cc1)n1nnc2ccccc21,144,14.6,0.71,3.42,940,3.54,0.788,13.6,1230,3.31,1330,6.17,0.317,1.43,319,1.19,501,1.79,1400,6.75
C=C1C(=O)OC2CC(C)C3C=CC(=O)C3CC12 (centres undefined),,4.53,,4.49,,4.16,,14.4,,21.7,,3.74,,13.2,,2.69,,3.66,,8.21
COc1ccc2c(c1)C1(C(=O)N2)C(C#N)=C(c2ccccc2)Nc2c1c(-c1ccccc1)nn2-c1ccccc1 (centres undefined),3080,8.65,6.47,21.8,2210,5.4,3.54,12.7,2710,6.82,2330,5.81,3.57,16.4,1810,3.51,2030,4.94,3800,16.4
Nc1nc(-c2cccc([N+](=O)[O-])c2)cc(-c2cc(-c3cccc([N+](=O)[O-])c3)nc(N)n2)n1,,> 100,,> 100,,> 100,,> 100,,> 100,,> 100,,> 100,,> 100,,> 100,,> 100
COc1cc2c(cc1OCCCCOc1ccc(-c3nc4ccccc4s3)cc1)N=C[C@@H]1CCCN1C2=O,276,1.12,0.393,1.83,2180,4.95,1.19,7.98,426,2.05,573,2.04,1.28,6.08,730,1.96,580,1.16,1710,3.89
CN(C)CCCn1c2nc(=O)[nH]c(=O)c-2nc2cc(Cl)c(Cl)cc21,6610,30.5,4.81,16.1,18900,34,3.16,10.6,16400,30,3880,14.9,4.65,13.9,2370,7.36,8790,23.2,2580,9.28
O=C1NN(c2ccccc2)C(=O)/C1=C/c1ccc(Br)o1,2620,8.3,15.8,44.7,7030,29.8,11,41.6,1450,11.2,,20.9,5.19,35,5420,22.4,19800,53.2,13500,34.7
C[C@H](N)C(=O)N1C[C@H](CCCB(O)O)[C@](N)(C(=O)O)C1,> 100000,> 100,> 100,> 100,> 100000,> 100,> 100,> 100,> 100000,> 100,> 100000,> 100,> 100,> 100,> 100000,> 100,> 100000,> 100,> 100000,> 100
CNCCCNCCCN1C(=O)c2ccc3c4c(ccc(c24)C1=O)C(=O)N(CCCNCc1ccccc1OC)C3=O,270,2.45,1.75,3.97,1010,2.79,0.797,9.43,1050,2.39,2900,14,1.45,6.04,1520,9.75,1270,4.56,1420,4.63
NC(=O)c1ccc2nc3c(n2c1)C(=O)C(=O)c1ccccc1-3,488,3.86,0.633,1.91,1070,2.29,0.403,1.63,928,2.24,850,2.32,1.63,3.34,264,0.787,1630,2.99,1710,3.8
OCc1ccc(N(CCN2CCCC2)Cc2ccc(F)cc2)cc1Cl,16100,44.8,17,33,15900,30.2,14,30.3,17100,39.7,16000,38.1,3.27,16.8,15600,31.5,21000,66,1390,3.85
Cc1cc(=O)oc2cc(OS(C)(=O)=O)ccc12,,> 100,,> 100,,> 100,,> 100,,> 100,,> 100,,> 100,,> 100,,> 100,,> 100
CCCN(CCSSCCNc1nc(N(C)O)nc(N(C)O)n1)c1nc(N(C)O)nc(N(C)O)n1,2710,> 100,18.6,> 100,6990,> 100,5.26,> 100,8780,> 100,18500,> 100,32.3,> 100,6630,> 100,3670,> 100,7760,> 100
